In patent US8455518B2, “Method of treating skin with microRNA modulators” (Avon Products, Inc., priority 2010, dated 2013):

Assays:
Format in all cases: cell-based
[1] = system: miR-29a; experiment: Inhibition of miR-29a by specific compounds in human dermal fibroblasts, qRT-PCR; settings: 0.0005% compound, 48 hours; for inhibition of miR-29a relative to vehicle treated cells (in words): p<0.05; for miR-29a (%): serum-free, relative to vehicle treated cells
Method: (§1) The expression of miR-29a and miR29b in young versus old skin fibroblasts was examined by qRT-PCR.
(§2) Human dermal fibroblasts were grown in the absence of serum overnight, followed by treatment with 0.0005% of test compounds in the absence of serum for 48 hours. Cells were analyzed for expression levels of miR-29a and miR-29b by qRT-PCR as described in Examples 1 and 2. […] All values are statistically significant at p<0.05.

[2] = system: miR-29b; experiment: Inhibition of miR-29b by specific compounds in human dermal fibroblasts, qRT-PCR; settings: 0.0005% compound, 48 hours; for inhibition of miR-29b relative to vehicle treated cells (in words): p<0.05; for miR-29b (%): serum-free, relative to vehicle treated cells
Method: as §1, §2

[3] = system: collagen; experiment: Collagen protein levels by ELISA in compound-treated human dermal fibroblasts; settings: 0.0005% compound, 48 hours; for collagen protein levels as measured by ELISA (in words): p<0.05; for Collagen (%): serum-free, collagen protein by ELISA

SMILES | inhibition of miR-29a relative to vehicle treated cells (in words) [1] | miR-29a (%) [1] [%] | inhibition of miR-29b relative to vehicle treated cells (in words) [2] | miR-29b (%) [2] [%] | collagen protein levels as measured by ELISA (in words) [3] | Collagen (%) [3] [%]
CC(C)CN(Cc1ccc(OS(C)(=O)=O)cc1)S(=O)(=O)c1ccccc1 [Compound 1, N-(2-methylpropyl)-N-[[4-[(methylsulfonyl)oxy]phenyl]methyl]-benzenesulfonamide] | significant inhibition | −61.57 | significant inhibition | −85.00 | increased collagen protein levels | 102
CCOCCCNC(=O)c1cc(NC(=O)/C=C/c2ccccc2)ccc1N1CCC(Cc2ccccc2)CC1 [Compound 2, 2-(4-benzylpiperidin-1-yl)-N-(3-ethoxypropyl)-5-[(2E)-3-phenylprop-2-enamido]-benzamide] | significant inhibition | −33.67 | significant inhibition | −61.53 | increased collagen protein levels | 30
